The results in this text go back to PubChem BioAssay (NCI).

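All cell lines were grown in 96-well plates and treated with compound for 48 hours. GI50 marks 50% less growth. At the TGI there is no net growth.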

Holding throughout (experiment): growth of human tumour cells (NCI), 48 h
Assay [1] relates to IGROV1 ovarian.
In assay [2] the test system is A549 NSCLC.
The subject of assay [3] is SW-620 colon.
Assay [4] concerns ACHN renal.
The test system of assay [5] is HT29 colon.
The test system of assay [6] is OVCAR-5 ovarian.
Assay [7] deals with SF-295 CNS.
In assay [8] the test system is RXF 393 renal.

For the compound `CC12CC1C(c1cccc([N+](=O)[O-])c1)(c1cccc([N+](=O)[O-])c1)N=N2` (centres undefined), the TGI was 60.5 µM in assay [1]; over 100 µM in assay [2]; over 100 µM in assay [3]; 29.4 µM in assay [4]; over 100 µM in assay [5]; over 100 µM in assay [6]. Moreover, the TGI in assay [7] is over 100 µM.

In the case of `O=C1CCc2ccc3c(c21)CC1(Cc2ccccc2C1)C3`, the TGI in assay [1] is over 100 µM; in assay [2], 29.6 µM; in assay [3] it was over 100 µM; in assay [4], over 100 µM; in assay [5], 22 µM; in assay [6] it was 44.2 µM. Further, the TGI in assay [7] is 38 µM.

For the compound `CCCCN(CCCC)C(=C(C(Cl)=C(Cl)Cl)[N+](=O)[O-])N(CCCC)CCCC`, the TGI in assay [2], in assay [4], in assay [6] and in assay [7] was over 100 µM throughout.

`CCN1C(=O)N(CC)C2Nn3c(s/c(=C4\C(=O)N(C)c5ccccc54)c3=O)=NC21` (centres undefined): the GI50 in assay [1] was 3.37 µM; in assay [2], 5.08 µM; in assay [3], 1.52 µM; in assay [4], 3.42 µM; in assay [5] it was 2.33 µM; in assay [7] it was 2.83 µM. In addition, the TGI in assay [1], in assay [2], in assay [3], in assay [4], in assay [5] and in assay [7] was over 100 µM each time.

Turning to `COP(=O)(OC)C12CCOCCN1c1ccccc1C2=O` (centres undefined), the TGI in assay [1], in assay [2], in assay [3], in assay [4], in assay [5] and in assay [6] was over 100 µM in each case. The same compound had a TGI in assay [7] of over 100 µM.

With `COC(=O)C1(Cc2ccc3c(c2)CCC3)Cc2ccccc2C1=O` (centres undefined), the TGI was over 100 µM in assay [1]; over 100 µM in assay [2]; over 100 µM in assay [3]; over 100 µM in assay [4]; 30.3 µM in assay [5]; over 100 µM in assay [6]. The same compound displayed a TGI in assay [7] of 67.4 µM.

As for `O=C(O)CC(NC(=O)/C(=C/c1ccccc1O)NC(=O)c1ccccc1)C(=O)O` (centres undefined), the TGI in assay [1], in assay [2], in assay [3], in assay [4], in assay [5] and in assay [6] was over 100 µM in each case. The TGI in assay [7] is over 100 µM.

Turning to `N#CC(=N)c1ncn(-c2ccccc2N)c1N`, the TGI in assay [1], in assay [2], in assay [3], in assay [4], in assay [5] and in assay [6] was over 100 µM throughout. Also, in assay [7], the TGI was over 100 µM.

Turning to `CC(C)(C)OC(=O)C1C(=O)NC(=O)CC1C(COCc1ccccc1)OCc1ccccc1` (centres undefined), the TGI in assay [1] is 52.5 µM; in assay [2], over 100 µM; in assay [3], 65.1 µM; in assay [4], 50.7 µM; in assay [5] it was 37.1 µM; in assay [6], 41.1 µM. The TGI in assay [7] amounted to 43.3 µM.

On to `O=c1n(Cc2ccccc2)c(=O)n2c(=O)n(Cc3ccccc3)c(=O)n12`, for which the TGI in assay [3], in assay [4], in assay [5] and in assay [7] was over 100 µM in each case.

Turning to `CC1(C)[C@@H](Cn2cnc3c(Cl)nc(N)nc32)CC[C@@]1(C)CO`, the TGI in assay [2], in assay [3], in assay [4], in assay [6], in assay [7] and in assay [8] was over 100 µM throughout.

On to `O=C1CC(Sc2nc3ccc(I)cc3c(=O)n2Cc2ccccc2)C(=O)NN1` (centres undefined), for which the TGI was determined as 25.2 µM in assay [1]; 89.4 µM in assay [2]; 35.2 µM in assay [3]; 30.2 µM in assay [4]; 38.6 µM in assay [5]; 41.4 µM in assay [6]. Also, the TGI in assay [7] amounted to 36.9 µM.

Take `CCCOC(=O)NC(C)C(=O)NC(CCC(=O)NC(CCCC(N)C(=O)O)C(=O)NC(C)C(=O)O)C(=O)O` (centres undefined): the TGI in assay [1] is over 100 µM; in assay [2], over 100 µM; in assay [3] it was 62.3 µM; in assay [4] it was over 100 µM; in assay [5], 38.4 µM; in assay [6], over 100 µM. Besides, the TGI in assay [7] turned out to be 30.9 µM.

For `CN(C)P(=O)(Oc1occc1C(O)Cc1ccccc1)N(C)C` (centres undefined), the TGI in assay [2], in assay [3], in assay [4], in assay [6], in assay [7] and in assay [8] was over 100 µM in each case.

On to `c1csc(-c2c3ccc(=[N+]4CCCCC4)cc-3oc3cc(N4CCCCC4)ccc23)c1`, for which, in assay [6], the GI50 was 0.202 µM and the TGI was 0.733 µM. Moreover, in assay [8], the GI50 is 0.133 µM and the TGI turned out to be 0.273 µM.
